Measured values as given in patent US20050107293A1, “Protein modification and maintenance molecules” (priority 2001, published 2005).

Key:
[1] = greater than progesterone; cited from earlier work
[2] = test system: C3A cells; experiment: Microarray analysis of SEQ ID NO:59 expression in C3A cells treated with progesterone or budenoside; format: cell-based, human; settings: early confluent C3A cells, 10 μM, at each time point (1, 3, and 6 hours), versus untreated C3A cells
Description: The human C3A cell line is a clonal derivative of HepG2/C3 (hepatoma cell line, isolated from a person with liver tumor), which was selected for strong contact inhibition of growth. The use of a clonal population enhances the reproducibility of the cells. C3A cells have many characteristics of primary human hepatocytes in culture: i) expression of insulin receptor and insulin-like growth factor II receptor; ii) secretion of a high ratio of serum albumin compared with α-fetoprotein iii) conversion of ammonia to urea and glutamine; iv) metabolism of aromatic amino acids; and v) proliferation in glucose-free and insulin-free medium. The C3A cell line is now well established as an in vitro model of the mature human liver (Mickelson et al. (1995) Hepatology 22:866-875; Nagendra et al. (1997) Am J Physiol 272:G408-G416). Early Confluent C3A cells were treated with progesterone or budenoside at 1, 10, and 100 μM for 1, 3, and 6 hours. The treated cells were compared to untreated early confluent C3A cells. […] Therefore, SEQ ID NO:59 may be useful in monitoring of, and diagnostic assays for steroid hormone-induced responses.

[3] = test system: liver C3A cells; experiment: Microarray analysis of SEQ ID NO:49 expression in steroid-treated C3A cells; format: cell-based, human; settings: for differential expression of SEQ ID NO:49: liver C3A cells treated with one steroid, microarray
Description: The human C3A cell line is a clonal derivative of HepG2/C3 and has been established as an in vitro model of the mature human liver (Mickelson et al. (1995) Hepatology 22:866-875; Nagendra et al. (1997) Am J Physiol 272:G408-G416). […] These experiments indicate that SEQ ID NO:49 is useful in diagnostic assays for liver diseases and as a potential biological marker and therapeutic agent in the treatment of liver diseases and disorders.

Compound | pharmacological activity relative to progesterone [1] | expression of SEQ ID NO:59 [2] | differential expression of SEQ ID NO:49 [3] | decrease in expression of SEQ ID NO:5 ([3]; early confluent C3A cells treated for 1, 3, or 6 hours, at a minimum of two out of the three time points)
6α-methyl-17-hydroxyprogesterone [Medroxyprogesterone] | about 15 times | – | – | –
CC(=O)[C@H]1CC[C@H]2[C@@H]3CCC4=CC(=O)CC[C@]4(C)[C@H]3CC[C@]12C [progesterone] | – | decreased by at least two-fold | differential expression | –
C[C@H]1C[C@H]2[C@@H]3CCC4=CC(=O)C=C[C@]4(C)[C@@]3(Cl)[C@@H](O)C[C@]2(C)[C@@]1(O)C(=O)CO [beclomethasone] | – | – | differential expression | at least a two-fold decrease
